Measurements: US6583150B1, “Pharmaceutical composition based on polyaromatic compounds” (Laboratorie L. Lafon, priority 1999, dated 2003)
pIC50: −log10 of the molar value. Like-named read-outs stand apart in the source and are kept apart here.

Tests used:
[1] = Determination of the maximum tolerated dose (MTD); format: in vivo; details: mouse, in vivo, ip; single intraperitoneal administration, survival over 14 days, B6D2F1/Jico mice
Method: (§1) The evaluation of the maximum tolerated dose was carried out on 4- to 6-week-old B6D2F1/Jico mice. […] The value of the MTD (expressed in mg/kg) is determined from observing the survival rate of the animals over a period of 14 days after a single administration of the product under consideration. The change in the weight of the animals is also monitored over this period.

[2] = tested on: U-87MG; assay: MTT cytotoxicity test, U-87MG; format: cell-based; details: Homo sapiens, U-87MG glioblastoma, 72 hours, read-out: concentrations flanking the IC50
Method: (§2) The influence of the compounds of formulae I and II on neoplastic cells was evaluated using the MTT calorimetric test. The principle of the MTT test is based on the mitochondrial reduction by metabolically active live cells of the yellow-colored product MTT (3-(4,5-dimethylthiazol-2-yl)-2,5-diphenyltetrazolium bromide) to a blue-colored product, formazan. The amount of formazan thus obtained is directly proportional to the amount of live cells present in the culture well(s). This amount of formazan is measured by spectrophotometry.
(§3) The cell lines are maintained in monolayer culture at 37° C. in stoppered culture dishes containing 25 MM HEPES MEM (Minimum Essential Medium) base medium. This medium, which is suitable for growing a range of varied diploid or primary mammalian cells, is then supplemented: […]
(§4) with a an amount of 5% FCS (Fetal Calf Serum) decomplemented at 56° C. for 1 hour, with 0.6 mg/mL of L-glutamine, with 200 IU/mL of penicillin, with […] of streptomycin, with 0.1 mg/mL of gentamicin.
(§5) The 12 human cancer cell lines used were obtained from the American Type Culture Collection (ATCC, Rockville, Md., USA). These 12 cell lines are:
(§6) U-373MG (code ATCC: HTB-17) and U-87MG (code ATCC: HTB-14) which are two glioblastomas, Experimentally: 100 μl of a cell suspension containing 200 000 to 50 000 (depending on the cell type used) cells/mL of culture medium are inoculated in flat-bottomed 96-well multi-well plates and are incubated at 37° C. under an atmosphere comprising 5% CO2 and 70% humidity. […] The intensity of the resulting blue coloration, and thus of the conversion of the yellow MTT product into blue formazan by the cells that are still alive at the end of the experiment is quantified by spectrophotometry using a DYNATECH IMMUNOASSAY SYSTEM machine at wavelengths of 570 nm and 630 nm corresponding, respectively, to the maximum absorption wavelengths of formazan and to the background noise. […]

[3] = tested on: U-373MG; assay: MTT cytotoxicity test, U-373MG; format: cell-based; details: Homo sapiens, U373 MG, U-373MG glioblastoma, 72 hours, read-out: concentrations flanking the IC50
Method: as §2, §3, §4, §5, §6

[4] = tested on: MCF7; assay: MTT cytotoxicity test, MCF7; format: cell-based; details: Homo sapiens, MCF7 breast cancer, 72 hours, read-out: concentrations flanking the IC50
Method: as §2, §3, §4
The 12 human cancer cell lines used were obtained from the American Type Culture Collection (ATCC, Rockville, Md., USA). These 12 cell lines are: […]

[5] = tested on: 12 human tumor lines: U-87MG, U-373MG, SW 1088, T24, J82, HCT-15, LoVo, MCF7, T-47D, A549, A-427 and PC-3; assay: MTT cytotoxicity test, panel of the 12 human tumor lines; format: cell-based; details: read-out: average IC50
Method: as §2, §3, §4, §5
U-373MG (code ATCC: HTB-17) and U-87MG (code ATCC: HTB-14) which are two glioblastomas, SW1088 (code ATCC: HTB-12) which is an astrocytoma, A549 (code ATCC: CCL-185) and A-427 (code ATCC: HTB-53) which are two non-small-cell lung cancers, HCT-15 (code ATCC: CCL-225) and LoVo (code ATCC: CCL-229) which are two colorectal cancers, T-47D (code ATCC: HTB-133) and MCF7 (code ATCC: HTB-22) which are two breast cancers, J82 (code ATCC: HTB-1) and T24 (code ATCC: HTB-4) which are two bladder cancers, PC-3 (code ATCC: CRL-1435) which is a prostate cancer.
Experimentally: 100 μl of a cell suspension containing 200 000 to 50 000 (depending on the cell type used) cells/mL of culture medium are inoculated in flat-bottomed 96-well multi-well plates and are incubated at 37° C. under an atmosphere comprising 5% CO2 and 70% humidity. After incubating for 24 hours, the culture medium is replaced with 100 μl of fresh medium containing either the various test compounds at concentrations ranging from 10^−5 to 10^−10 M or the solvent used to dissolve the test products (control condition). After incubating for 72 hours under the above conditions, the culture medium is replaced with 100 μl of a yellowish solution of MTT dissolved at a rate of 1 mg/mL in RPMI 1640. The microplates are reincubated for 3 hours at 37° C. and then centrifuged for 10 minutes at 400×g. The yellowish solution of MTT is removed and the blue formazan crystals formed at the cellular level are dissolved in 100 μl of DMSO. The microplates are then agitated for 5 minutes. The intensity of the resulting blue coloration, and thus of the conversion of the yellow MTT product into blue formazan by the cells that are still alive at the end of the experiment is quantified by spectrophotometry using a DYNATECH IMMUNOASSAY SYSTEM machine at wavelengths of 570 nm and 630 nm corresponding, respectively, to the maximum absorption wavelengths of formazan and to the background noise. Software built into the spectrophotometer calculates the average optical density values and also the standard deviation (Std. Dev.) and standard error of mean (SEM) values.
The inhibitory activity on the cell growth of the compounds of formula I and of formula II on the different tumor cell lines was compared with that of the natural product meridine (CRL 8348). All of the compounds of formula I and of formula II show significant inhibitory activity on the cell proliferation of the 12 human tumor lines: U-87MG, U-373MG, SW 1088, T24, J82, HCT-15, LoVo, MCF7, T-47D, A549, A-427 and PC-3 with an inhibitory concentration 50 (IC50) which is between 10^−6 M and 10^−10M, depending on the compounds and the tumor lines tested. By way of example, the values of the concentrations flanking the IC50 which are obtained on the various cell lines are given in table II: […]

[6] = tested on: B6D2F1/Jico mice; assay: Determination of the maximum tolerated dose (MTD); format: in vivo; details: single intraperitoneal administration, survival over 14 days
Method: as §1

| Compound | MTD at 14 days [1] [mg/kg] | other results |
| --- | --- | --- |
| O=C1c2nccc(-c3ccccc3NC(=O)C(F)(F)F)c2C(=O)c2c([N+](=O)[O-])ccnc21 [CRL 8267, 6-Nitro-4-(2-trifluoroacetamidophenyl)pyrido[3,2-g]-quinoline-5,10-dione] | 20 | – |
| O=C(O)C(F)(F)F.O=C1c2nccc(Br)c2-c2nc3ccccc3c3ccnc1c23 [CRL 8259, 12-Bromobenzo[b]pyrido[4,3,2-de][1,7]phenanthroline-8-one Trifluoroacetate] | 40 | – |
| CN(C)c1ccnc2c1C(=O)c1c(-c3ccccc3NC(=O)C(F)(F)F)ccnc1C2=O [CRL 8426, 6-(Dimethylamino)-4-(2-trifluoroacetamidophenyl)pyrido-[3,2-g]quinoline-5,10-dione] | > 160 | – |
| O=C1c2nc(O)ccc2C(=O)c2c(-c3ccccc3NC(=O)C(F)(F)F)ccnc21 [CRL 8429, 8-Hydroxy-4-(2-trifluoroacetamidophenyl)pyrido[3,2-g]-quinoline-5,10-dione] | 40 | – |
| CC(=O)Nc1ccnc2c1C(=O)c1c(-c3ccccc3NC(=O)C(F)(F)F)ccnc1C2=O [CRL 8428, 6-(Acetamido)-4-(2-trifluoroacetamidophenyl)pyrido-[3,2-g]quinoline-5,10-dione] | > 160 | – |
| COc1ccnc2c1-c1nc3ccccc3c3ccnc(c13)C2=O [CRL 8276, 12-Methoxybenzo[b]pyrido[4,3,2-de][1,7]phenanthroline-8-one] | 80 | pIC50 [2]: > 10.00; pIC50 [3]: > 10.00; pIC50 [4]: > 10.00; pIC50 ([5]; Homo sapiens): 8.68 |
| Nc1ccnc2c1C(=O)c1c(-c3ccccc3[N+](=O)[O-])ccnc1C2=O [CRL 8300, 6-Amino-4-(2-nitrophenyl)pyrido[3,2-g]quinoline-5,10-dione] | 80 | – |
| O=C1c2nccc(Cl)c2C(=O)c2c(-c3ccccc3[N+](=O)[O-])ccnc21 [CRL 8296, 6-Chloro-4-(2-nitrophenyl)pyrido[3,2-g]quinoline-5,10-dione] | 80 | – |
| O=C(O)C(F)(F)F.O=C1c2nccc([N+](=O)[O-])c2-c2nc3ccccc3c3ccnc1c23 [CRL 8258, 12-Nitrobenzo[b]pyrido[4,3,2-de][1,7]phenanthroline-8-one Trifluoroacetate] | 40 | – |
| O=C1c2nccc(Cl)c2C(=O)c2c(-c3ccccc3NC(=O)C(F)(F)F)ccnc21 [CRL 8250, 6-Chloro-4-(2-trifluoroacetamidophenyl)pyrido[3,2-g]-quinoline-5,10-dione] | 20 | – |
| O=C1c2nccc([N+](=O)[O-])c2-c2nc3ccccc3c3ccnc1c23 [CRL 8273, 12-Nitrobenzo[b]pyrido[4,3,2-de][1,7]phenanthroline-8-one] | > 80 | – |
| O=C1c2nccc(Cl)c2-c2nc3ccccc3c3ccnc1c23 [CRL 8242, 12-Chlorobenzo[b]pyrido[4,3,2-de][1,7]phenanthroline-8-one] | > 160 | – |
| O=C1c2nccc(O)c2-c2nc3ccccc3c3ccnc1c23 [CRL 8348, meridine, reference compound] | > 160 | pIC50 [3]: 7.00; pIC50 ([5]; Homo sapiens): 6.77 |
| O=C1c2nc(O)ccc2-c2nc3ccccc3c3ccnc1c23 [CRL 8432, 10-Hydroxybenzo[b]pyrido[4,3,2-de][1,7]phenanthroline-8-one] | > 160 | – |
| CN(C)c1ccnc2c1-c1nc3ccccc3c3ccnc(c13)C2=O [CRL 8427, 12-Dimethylaminobenzo[b]pyrido[4,3,2-de][1,7]phenanthroline-8-one] | > 160 | – |
| cystodamine [reference compound] | – | MTD [6]: >160 mg/kg; pIC50 ([5]; calculated from the cytotoxic activity on the 12 tumor lines studied): 7.00 |
| COc1ccnc2c1C(=O)c1c(-c3ccccc3[N+](=O)[O-])ccnc1C2=O [CRL 8243, 6-Methoxy-4-(2-nitrophenyl)pyrido[3,2-g]quinoline-5,10-dione] | > 160 | – |
| O=C1c2ncccc2C(=O)c2c(-c3ccccc3NC(=O)C(F)(F)F)ccnc21 [CRL 8277, 4-(2-Trifluoroacetamidophenyl)pyrido[3,2-g]quinoline-5,10-dione] | > 40 | pIC50 ([5]; Homo sapiens): 7.90 |
